Experimental data as given in patent US11197836B2, “Topical vasoconstrictor preparations and methods for protecting cells during cancer chemotherapy and radiotherapy” (WISCONSIN ALUMNI RESEARCH FOUNDATION, priority 2005, dated 2021).
“Also recorded” adds a separate entry of the source. Where a name gives a salt, the structure may show the parent alone. Read-outs that look alike come from different tables or passages of the source.

What was measured:
coat density = settings: ten-day old Sprague-Dawley rats
Protocol: On day 20 of life, coat density on the dorsal back of each animal was visually scored as a percentage of the normal coat density for an untreated 20 day old rat. At 30 μg/gm b.w.

[1] = blood plasma, following intravenous infusion or oral administration; cited from earlier work
[2] = system: radiation-induced oral mucositis; settings: for Muscositis Severity Score: score 0-17, day 16
Protocol: In an assay based upon Alvarez eta/. […] Additional topical formulation was applied with Q-tip to uniformly cover the everted, interior surface of the cheek pouch. After 20 min, the vehicle-coated, immobilized cheek pouch was taped into position over a 1.5 cm diameter window bored through a 2.5 cm thick lead plate. The sleeping hamster was immobilized on a small shelf on the plate that enabled cheek pouch irradiation through the window.
After irradiation, the cheek pouch was rinsed with water, blotted and reverted. The severity of mucositis in the irradiated cheek pouch was scored 16 days later using the following criteria.

[3] = system: chemotherapy-induced alopecia; settings: 950 mM topical four times in two hr, 10 day old rat pups, Cytoxan 30 μg/gm b.w. i.p.
cheek pouch oral mucosa = experiment: Blanch response of hamster cheek pouch oral mucosa, Example 15; type: in vivo, Syrian Golden hamster; settings: 10 mM in 5:1:94 ethanol:HPMC:PBS, after 30 min
Protocol: Hamsters were anesthetized with sodium pentobarbital, the cheek pouch was everted with forceps, rinsed with water and blotted, and immobilized on a 2 cm diameter inert plastic disk using stainless steel clips (see panels in FIG. 11). […] Digital images were recorded.

[4] = system: radiation-induced or Cytoxan-induced alopecia; settings: neonate rat, day 20 of life
Description: The severity of the alopecia was scored nine days later—on day 20 of life.

human skin [5] = settings: for Skin Blanch Response: human arm skin; for blanching of the skin: human skin, over the 180 min observation period
[6] = system: radiation-induced dermatitis of rat skin; settings: for Radiation Dermatitis Score (% of Irradiated 4.5 cm^2 Area Free of Scab material): rat, 8.7 Gy γ, scored 13 days later
[7] = Sustained solubility of norepinephrine tartrate in ethanol:PG:water mixtures, Example 7; type: physicochemical; settings: 600 mM
Protocol: Solvent composed of ethanol:propylene glycol (PG):water in the percentages (vol:vol:vol)·specified in FIG. 3 was then added to each vial. Vials were heated as necessary to dissolve norepinephrine by touching vials to a boiling water bath for one second increments and then vortexing until clear. Sealed vials were left at room temperature for 24 hours, and at 4° C. for 24 hours. During the two 24 hour incubations, liquid in each vial was examined using a magnifying glass to identify the formation of any crystalline material. If crystals formed, norepinephrine was noted as “insoluble” at that solvent mixture.

[8] = system: radiodermatitis of rat skin; experiment: Radiodermatitis prevention after 27 Gy 6 MeV electron beam irradiation of rat skin, Example 14; type: in vivo; settings: 300 mM topical
Protocol: Adult rats ([…]) were clipped to remove the coat covering their dorsal backs. Aliquots (100 μl) of topical drug formulation containing 300 mM norepinephrine were applied once to the backs of the rats, and at set time points afterward, a rectangle (1.5 cm×3 cm) within the topical treatment field received a 27 Gy dose of 6 MeV electrons from a linear accelerator. Animals were anesthetized with 30 μg/gm b.w. sodium pentobarbital prior to irradiation. Following irradiation, rats were returned to cages, and 13 days later the severity of radiodermatitis within the irradiated rectangular field was visually scored and photographed. A “Radiodermatitis Severity Score” between 0 and 100 represents the percentage of the irradiated field that is covered by scab material on day 13 following irradiation.

adrenergic receptor = settings: cited from earlier work
dermal vasculature = experiment: Exclusion of systemic dye from rat skin (colorimeter), Example 18; type: in vivo; settings: 300 mM in 50:30:20 vehicle, 30 min time point
Protocol: 400 μl of a black dye solution was injected into each test rat as an i.p. bolus at 10 min after topical treatment with either 300 mM norepinephrine or vehicle alone. Colorimeter measurements of skin color in patches were made and the progression was recorded from 0 through 30 min. The change in colorimeter units between the 0 min reading and readings at indicated time points are plotted in FIG. 15. Colorimeter measurements of skin color were made using a CR-400 colorimeter (Minolta Corp.).

[9] = system: radiation-induced oral mucositis; experiment: Radiation-induced oral mucositis in hamster cheek pouch, Example 16; settings: hamster cheek pouch
human skin [10] = experiment: Human skin blanch 20 min after topical application, Example 6; type: in vivo; settings: applied to unbroken human skin
Protocol: (§1) The approximate amount of heat required to dissolve the vasoconstrictor salt in each diluent is indicated. Once diluted, samples were sealed and held at room temperature (22° C.) for 24 hours and then at 4° C. for 24 hours. Skin blanch induced by the topical formulation was assessed by applying freshly made, clear formulation to human skin shortly after initial mixing. Drug solutions were monitored for the appearance of precipitated material over a 48 hour observation period.

[11] = Dissolution and 24 hr solution status of vasoconstrictor salts in ethanol:PG:water diluents, Example 6; type: physicochemical; settings: at the concentrations required to induce an acceptable blanch response
Protocol: Aliquots of each vasoconstrictor salt were weighed into glass test tubes. The volume of liquid necessary to achieve the indicated final drug concentration was then added.
as §1

O=P1(N(CCCl)CCCl)NCCCO1 (centres unmarked) [Cytoxan, cyclophosphamide]
coat on day 20 (coat density; 20 μg/gm b.w. and lower doses i.p.): full coats
coat on day 20 (coat density; 30 μg/gm b.w. and higher doses i.p.): nude
clearance half-life [1]: about one

CNC[C@H](O)c1ccc(O)c(O)c1 [epinephrine, epinephrine-HCl]
Muscositis Severity Score ([2]; 0.05 mM, vehicle 5:5:3:87 ethanol:propylene glycol:HPMC:PBS, irradiation 20 min, Experiment C): 7.5
Muscositis Severity Score ([2]; 0.10 mM, vehicle 5:5:3:87, irradiation 20 min, Experiment C): 5.0
Muscositis Severity Score ([2]; 0.20 mM, vehicle 5:5:3:87, irradiation 20 min, Experiment C): 3.0
Muscositis Severity Score ([2]; 0.40 mM, vehicle 5:5:3:87, irradiation 20 min, Experiment C): 0
Muscositis Severity Score ([2]; 13.5 mM epinephrine + 12.3 mM epinephrine, vehicle 0:5:3:92, irradiation 24 min, Experiment B): 11.7 ± 0.7
Muscositis Severity Score ([2]; 100.00 mM, vehicle 5:0:1:94, irradiation 24 min, Experiment A): 14.5 ± 2.4
Muscositis Severity Score ([2]; 500.00 mM, vehicle 5:0:1:94, irradiation 24 min, Experiment A): 9.0
lowest topical concentration with discernible radioprotection of a mucosal site ([2]; hamster cheek pouch): 50 µM
coat protection on day 20 [3]: partial coat protection
appearance of cheek pouch (blanch) (cheek pouch oral mucosa): white and translucent
Alopecia Score (% Normal Coat Density in Topical Treatment Area) ([4]; 20 mM, vehicle 50:25:25, Irradiation 7.5 Gy whole-body): 6%
Alopecia Score (% Normal Coat Density in Topical Treatment Area) ([4]; 100 mM, vehicle 50:25:25, Irradiation 7.5 Gy whole-body): 33%
Alopecia Score (% Normal Coat Density in Topical Treatment Area) ([4]; 500 mM, vehicle 50:25:25, Irradiation 7.5 Gy whole-body): 45%
Alopecia Score (% Normal Coat Density in Topical Treatment Area) ([4]; 1000 mM, vehicle 0:100:0, Irradiation 7.5 Gy whole-body): 95%
Alopecia Score (% Normal Coat Density in Topical Treatment Area) ([4]; 1000 mM, vehicle 25:30:45, Cytoxan 32 μ/gm b.w. i.p.): 40%
Alopecia Score (% Normal Coat Density in Topical Treatment Area) ([4]; 1000 mM, vehicle 25:30:45 ethanol:propylene glycol:water, alopecia-inducing agent None): 100%
Alopecia Score (% Normal Coat Density in Topical Treatment Area) ([4]; 1000 mM, vehicle 50:25:25, Irradiation 7.5 Gy whole-body): 94%
Skin Blanch Response (human skin [5]; 2 mM in 50:25:25 ethanol:propylene glycol:water, 45 min): 10%
Skin Blanch Response (human skin [5]; 2 mM in 50:25:25 ethanol:propylene glycol:water, 60 min): 40%
Skin Blanch Response (human skin [5]; 2 mM in 50:25:25 ethanol:propylene glycol:water, 150 min): 75%
Skin Blanch Response (human skin [5]; 10 mM in 50:25:25 ethanol:propylene glycol:water, 45 min): 40%
Skin Blanch Response (human skin [5]; 10 mM in 50:25:25 ethanol:propylene glycol:water, 60 min): 60%
Skin Blanch Response (human skin [5]; 10 mM in 50:25:25 ethanol:propylene glycol:water, 150 min): 90%
Skin Blanch Response (human skin [5]; 50 mM in 50:25:25 ethanol:propylene glycol:water, 45 min): 30%
Skin Blanch Response (human skin [5]; 50 mM in 50:25:25 ethanol:propylene glycol:water, 60 min): 50%
Skin Blanch Response (human skin [5]; 50 mM in 50:25:25 ethanol:propylene glycol:water, 150 min): 85%
Skin Blanch Response (human skin [5]; 0.1% (4.55 mM) in water, 45 min): 0%
Skin Blanch Response (human skin [5]; 0.1% (4.55 mM) in water, 60 min): 0%
Skin Blanch Response (human skin [5]; 0.1% (4.55 mM) in water, 150 min): 0%
Skin Blanch Response (human skin [5]; 0.1% (4.55 mM) in water, 180 min): 0%
blanching of the skin (human skin [5]; 0.1% aqueous solution): no detectable blanching
Skin Blanch Response (human skin [5]; 100 mM in 50:25:25 ethanol:propylene glycol:water, 45 min): 85%
Skin Blanch Response (human skin [5]; 100 mM in 50:25:25 ethanol:propylene glycol:water, 60 min): 90%
Skin Blanch Response (human skin [5]; 100 mM in 50:25:25 ethanol:propylene glycol:water, 150 min): 90%
Skin Blanch Response (human skin [5]; 1000 mM in 50:25:25 ethanol:propylene glycol:water, 45 min): 85%
Skin Blanch Response (human skin [5]; 1000 mM in 50:25:25 ethanol:propylene glycol:water, 60 min): 90%
Skin Blanch Response (human skin [5]; 1000 mM in 50:25:25 ethanol:propylene glycol:water, 150 min): 95%
Radiation Dermatitis Score (% of Irradiated 4.5 cm^2 Area Free of Scab material) ([6]; 20 mM, vehicle 50:30:20, four topical applications): 32%
Radiation Dermatitis Score (% of Irradiated 4.5 cm^2 Area Free of Scab material) ([6]; 300 mM, vehicle 25:30:45, four topical applications): 95%
Radiation Dermatitis Score (% of Irradiated 4.5 cm^2 Area Free of Scab material) ([6]; 1000 mM, vehicle 50:30:20, four topical applications): 100%
concentration applied to skin required to confer protection against radiation dermatitis ([6]; rat skin): > 20 mM

NC[C@H](O)c1ccc(O)c(O)c1 [norepinephrine]
solubility (no crystals over 24 hr room temperature and 24 hr 4° C.) ([7]; 55:20:25 ethanol:PG:water): not soluble
solubility (no crystals over 24 hr room temperature and 24 hr 4° C.) ([7]; around 50:30:20 ethanol:PG:water): areas of solubility
solubility (no crystals over 24 hr room temperature and 24 hr 4° C.) ([7]; around 60:10:30 ethanol:PG:water): areas of solubility
protection against Grade 2 dermatitis [8]: complete protection
agonism of the β2 receptor (adrenergic receptor): not an agonist of the β2 receptor
binding affinity (potency) for the α1 adrenergic receptor (adrenergic receptor): slightly better than for epinephrine
reduction of delivery of systemic, blood-borne dye to treated skin (dermal vasculature): 39%

CNC[C@H](O)c1cccc(O)c1 [phenylephrine, phenylephrine-HCl]
Muscositis Severity Score ([2]; 12.3 mM, vehicle 0:5:3:92, irradiation 24 min, Experiment B): 5.0 ± 0.1
appearance of cheek pouch (blanch) (cheek pouch oral mucosa): white and translucent
protection against γ radiation-induced mucositis ([9]; 10 mM topical): completely protective; also recorded: completely preventing
mucosal pathology ([9]; large excess doses combined with 24 min of irradiation (40 Gy)): severe mucosal pathology
mucosal pathology ([9]; large excess doses without irradiation): no discernible mucosal pathology
potency to induce skin blanch (human skin [10]): lacks the potency to adequately induce skin blanch
Skin Blanch Response (human skin [5]; 30 mM in 60:30:10 vehicle, 180 min): 0%
Skin Blanch Response (human skin [5]; 150 mM in 60:30:10 vehicle, 180 min): 35%
Skin Blanch Response (human skin [5]; 0.25% (12.3 mM) in water, 180 min): 0%
blanching of the skin (human skin [5]; 0.25% aqueous solution): no detectable blanching
Skin Blanch Response (human skin [5]; 300 mM in 60:30:10 vehicle, 180 min): 50%
Skin Blanch Response (human skin [5]; 1000 mM in 60:30:10 vehicle, 180 min): 60%
Skin Blanch Response (human skin [5]; 2500 mM in 60:30:10 vehicle, 180 min): 70%
solubility in topical vehicles [11]: not stably soluble
